Among the test systems are 786-0; A498; ACHN; HOP-92; MOLT-4; NCI-H226; NCI-H23; NCI-H522; SF-295; SF-539; SK-MEL-2; SK-OV-3; SN12C; SNB-75; U-251; UACC-257; UO-31; DU-145; NCI/ADR-RES.
Common to all, as to assay: NCI anticancer screen, dose series, 48 h

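Dose response: 5 concentrations. Exposure: 48 h. Format: 96-well plates. Endpoint: linear interpolation; highest concentration if not reached. GI50: concentration for 50% inhibition of growth.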 Calls of active or inactive are those of the source. Cut-off read from the data, not from the text of the source: active = GI50 up to about 1.1 µM and inactive = higher.

The source of these data is ChEMBL document CHEMBL1201862, “PubChem BioAssay data set” (2004).

For `C=C(C)C1CC=C(C(=O)O)CC1` (stereo not given), the GI50 with 786-0 is 1410 µM (inactive); in the assay with A498 it was 1210 µM (inactive); in the assay with ACHN, 1020 µM (inactive); with HOP-92, 1440 µM (inactive); in the assay with MOLT-4 it was 2330 µM (inactive); in the assay on NCI-H226, 1040 µM (inactive). The GI50 in the assay on NCI-H23 was 968 µM (inactive); in the assay on NCI-H522, 887 µM (inactive); in the assay with SF-295, 1090 µM (inactive); in the assay with SF-539, 1070 µM (inactive); in the assay on SK-MEL-2, 1170 µM (inactive); in the assay on SK-OV-3, 2070 µM (inactive). The GI50 with SN12C was 1570 µM (inactive); with SNB-75 it was 1200 µM (inactive); in the assay with U-251 it was 1060 µM (inactive); in the assay on UACC-257, 1190 µM (inactive); with UO-31, 1190 µM (inactive).

Consider `CC1=CC(=O)NP(=O)(Oc2ccc(C)cc2)N1` (stereo not given), for which the GI50 with 786-0, with A498, in the assay on ACHN, with HOP-92, in the assay on MOLT-4 and in the assay on NCI-H226 was > 100 µM (inactive) in each case. The GI50 in the assay on NCI-H23, in the assay with NCI-H522, in the assay with SF-295, with SF-539, in the assay on SK-MEL-2 and in the assay on SK-OV-3 was > 100 µM (inactive) each time. For the same compound, the GI50 with SN12C, with SNB-75, in the assay with U-251, in the assay on UACC-257 and with UO-31 was > 100 µM (inactive) each time.

For the compound `CCCOCN1COCN/C1=N\C#N`, the GI50 in the assay on 786-0 is 22 µM (inactive); in the assay with A498, > 100 µM (inactive); with ACHN, 52.4 µM (inactive); with HOP-92, > 100 µM (inactive); in the assay with MOLT-4, > 100 µM (inactive); with NCI-H226, > 100 µM (inactive). Further, the GI50 in the assay with NCI-H23, in the assay with NCI-H522, in the assay on SF-295, with SF-539, with SK-MEL-2 and in the assay with SK-OV-3 was > 100 µM (inactive) each time. Moreover, the GI50 in the assay on SN12C was > 100 µM (inactive); with SNB-75 it was > 100 µM (inactive); in the assay on U-251, 21.6 µM (inactive); in the assay with UACC-257 it was > 100 µM (inactive); in the assay on UO-31, > 100 µM (inactive).

With `Cc1ccc(Sc2ccc(C)cc2[N+](=O)[O-])c([N+](=O)[O-])c1`, the GI50 in the assay with 786-0, in the assay with A498, in the assay with ACHN, in the assay on HOP-92, with MOLT-4 and in the assay with NCI-H226 was > 100 µM (inactive) throughout. For the same compound, the GI50 with NCI-H23, in the assay on NCI-H522, in the assay with SF-295, with SF-539, in the assay with SK-MEL-2 and with SK-OV-3 was > 100 µM (inactive) throughout. In addition, the GI50 was > 100 µM (inactive) in the assay on SN12C; 46.5 µM (inactive) in the assay on SNB-75; > 100 µM (inactive) with U-251; > 10 µM (inactive) in the assay with UACC-257; > 100 µM (inactive) in the assay on UO-31.

Regarding `CC1=NN(c2cccc(Cl)c2)C(=N/c2nc3ccccc3s2)/C1=C\C=C\c1ccccc1`, the GI50 in the assay on 786-0 was 41.4 µM (inactive); in the assay on A498 it was 24.7 µM (inactive); in the assay with ACHN, 28 µM (inactive); with DU-145 it was 50.4 µM (inactive); in the assay on MOLT-4, 0.369 µM (active); in the assay with NCI-H226, 79.8 µM (inactive). The GI50 in the assay on NCI-H23 is 32.1 µM (inactive); in the assay on NCI-H522 it was 28.8 µM (inactive); with NCI/ADR-RES, 59.2 µM (inactive); in the assay with SF-295, 33.5 µM (inactive); in the assay with SF-539 it was 43.8 µM (inactive); with SK-OV-3, 34.6 µM (inactive). Besides, the GI50 in the assay with UACC-257 is 31.5 µM (inactive); in the assay with UO-31 it was 28.4 µM (inactive).

Take `CN1C/C(=C\c2ccccc2)C2=NN(C(N)=S)[C@H](c3ccccc3)[C@@H]2C1`: the GI50 with 786-0 is 64 µM (inactive); in the assay with A498, > 100 µM (inactive); in the assay on ACHN, 76.7 µM (inactive); in the assay with HOP-92, 75.3 µM (inactive); in the assay with MOLT-4, 89.1 µM (inactive); in the assay with NCI-H226 it was 75.5 µM (inactive). In addition, the GI50 in the assay on NCI-H23 is 56.4 µM (inactive); in the assay with NCI-H522 it was 40 µM (inactive); in the assay with SF-295, 87.9 µM (inactive); in the assay with SF-539, > 100 µM (inactive); in the assay on SK-MEL-2 it was > 100 µM (inactive); in the assay on SK-OV-3, > 100 µM (inactive). For the same compound, the GI50 in the assay on SN12C was > 100 µM (inactive); with U-251, > 100 µM (inactive); with UACC-257 it was 59.2 µM (inactive); with UO-31 it was 36.9 µM (inactive).

As for `NC(=O)C(=O)N/N=C1\C(=O)N(c2ccc(Cl)cc2Cl)C(=O)C1C(=O)Nc1ccc(Cl)cc1Cl` (stereo not given), the GI50 in the assay on 786-0, in the assay on A498, in the assay with ACHN, with HOP-92, in the assay with MOLT-4 and in the assay on NCI-H226 was > 100 µM (inactive) throughout. Moreover, the GI50 in the assay with NCI-H23, in the assay on NCI-H522, in the assay on SF-295, with SF-539, with SK-MEL-2 and in the assay with SK-OV-3 was > 100 µM (inactive) each time. The GI50 was > 100 µM (inactive) in the assay with SN12C; 28.8 µM (inactive) in the assay on SNB-75; > 100 µM (inactive) in the assay on U-251; > 100 µM (inactive) in the assay with UACC-257; > 100 µM (inactive) in the assay on UO-31.

As to `Cc1cc(=O)n(-c2ccccc2)c(=O)o1`, the GI50 in the assay on 786-0, in the assay with A498, in the assay with ACHN, with HOP-92, in the assay with MOLT-4 and in the assay on NCI-H226 was > 100 µM (inactive) each time. Also, the GI50 with NCI-H23 is > 100 µM (inactive); in the assay on NCI-H522, 62.7 µM (inactive); in the assay with SF-295 it was 49.5 µM (inactive); with SF-539, > 100 µM (inactive); in the assay on SK-MEL-2, > 100 µM (inactive); in the assay with SK-OV-3 it was > 100 µM (inactive). Also, the GI50 with SN12C, in the assay with SNB-75, in the assay on U-251, with UACC-257 and with UO-31 was > 100 µM (inactive) throughout.

On to `COc1cccc(C2c3cc4c(cc3OC(N3CCCC3)C2c2ccccc2)OCO4)c1O` (stereo not given), for which the GI50 is 8.32 µM (inactive) in the assay with 786-0; 3.72 µM (inactive) with ACHN; 11.9 µM (inactive) in the assay with DU-145; 3.85 µM (inactive) in the assay on MOLT-4; 14 µM (inactive) in the assay with NCI-H23; 12 µM (inactive) with NCI-H522. Besides, the GI50 is 9.91 µM (inactive) in the assay with NCI/ADR-RES; 3.74 µM (inactive) in the assay with SF-295; 6.78 µM (inactive) in the assay with SF-539; 12.1 µM (inactive) in the assay on SK-MEL-2; 12.7 µM (inactive) with SN12C; 5.74 µM (inactive) with SNB-75. The GI50 is 11.4 µM (inactive) with UACC-257 and 3.46 µM (inactive) in the assay with UO-31.

`O=c1ccn([C@@H]2C[C@@H]2CO)c(=O)[nH]1`: the GI50 with 786-0, with A498, with ACHN, in the assay with DU-145, with HOP-92 and in the assay with NCI-H226 was > 100 µM (inactive) in each case. For the same compound, the GI50 with NCI-H23, in the assay on NCI-H522, in the assay on NCI/ADR-RES, in the assay with SF-539, with SK-MEL-2 and in the assay with SN12C was > 100 µM (inactive) each time. The GI50 with SNB-75, in the assay on U-251, with UACC-257 and in the assay with UO-31 was > 100 µM (inactive) in each case.

As to `CCOC12OC3=C(CC1CC1=C(CCC1=O)O2)C(=O)CC3` (stereo not given), the GI50 in the assay with 786-0, with A498, in the assay with HOP-92, in the assay on MOLT-4, in the assay on NCI-H226 and with NCI-H23 was > 100 µM (inactive) each time. Further, the GI50 with NCI-H522, in the assay with SF-295, in the assay with SF-539, with SK-MEL-2, with SK-OV-3 and with SN12C was > 100 µM (inactive) throughout. Moreover, the GI50 in the assay with SNB-75, in the assay on U-251, in the assay with UACC-257 and with UO-31 was > 100 µM (inactive) each time.

Turning to `Cc1ccc(-c2cc(O)c3cc4c(cc3n2)OCO4)cc1`, the GI50 in the assay with 786-0 is 1.78 µM (inactive); with A498, 0.615 µM (active); in the assay on ACHN, 7.67 µM (inactive); with HOP-92 it was 1.87 µM (inactive); with MOLT-4, 2.72 µM (inactive); in the assay with NCI-H226 it was 1.63 µM (inactive). Moreover, the GI50 is 0.916 µM (active) in the assay on NCI-H23; 1.63 µM (inactive) in the assay with NCI-H522; 2.02 µM (inactive) with SF-295; 1.31 µM (inactive) with SF-539; 1.72 µM (inactive) with SK-MEL-2; 1.45 µM (inactive) in the assay on SK-OV-3. Moreover, the GI50 in the assay with SN12C was 2.56 µM (inactive); in the assay with SNB-75, 1.37 µM (inactive); in the assay with U-251, 1.59 µM (inactive); in the assay with UACC-257, > 100 µM (inactive); in the assay on UO-31 it was > 21.3 µM (inactive).
